Measurements as given in US20230192623A1, “Indazole Derivatives” (Hoffmann-La Roche Inc., priority 2020, published 2023).

target: T1, human cGAS (residues 161-522) (Homo sapiens, UniProt Q8N884); experiment: Malachite Green assay to measure cGAS activity (coupled enzymatic assay, phosphate detection); format: biochemical; settings: recombinant purified human cGAS 25 nM; 80 μM ATP, 80 μM GTP, 100 nM ISD; 4 hour at RT; absorbance 620 nm
T1 construct: Recombinantly expressed purified human cGAS (residues 161-522) was used at 25nM; made in house
T1 sequence (Q8N884 161-522): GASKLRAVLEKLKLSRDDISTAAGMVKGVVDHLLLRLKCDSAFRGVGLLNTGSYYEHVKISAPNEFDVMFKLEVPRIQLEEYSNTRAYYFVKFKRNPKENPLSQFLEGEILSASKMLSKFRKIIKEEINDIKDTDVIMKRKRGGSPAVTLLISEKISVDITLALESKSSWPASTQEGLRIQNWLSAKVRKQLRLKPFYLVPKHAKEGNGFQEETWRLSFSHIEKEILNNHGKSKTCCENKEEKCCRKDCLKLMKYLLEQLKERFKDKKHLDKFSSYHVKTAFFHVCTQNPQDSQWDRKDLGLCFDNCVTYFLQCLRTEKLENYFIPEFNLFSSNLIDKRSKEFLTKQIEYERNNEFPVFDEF
Procedure: Malachite Green Assay to Measure cGAS Activity
Compounds were tested for cGAS inhibition in a coupled enzymatic assay based on Phosphate detection by Malachite Green. Final assay conditions were 20 mM TRIS pH 7.5 (Applichem), 5 mM MgCl2 (Sigma) and 0.01% BSA (Sigma) supplemented with 80 μM ATP (Sigma), 80 μM GTP (Sigma) and 100 nM Interferon Stimulating DNA (ISD) (Microsynth). Recombinantly expressed purified human cGAS (residues 161-522) was used at 25nM.
All compounds were prepared as 10 mM stock solutions in DMSO and a 16 pt dilution series in DMSO with a dilution factor of 2.5 was prepared. 1 μL of DMSO dilution series was transferred to 32.3 μL reaction buffer, mixed by pipetting up/down, spun for 1 minute at 3000 rpm and was visually inspected for precipitation. 5 μL of 3-fold enzyme stock solution were transferred to an empty 384-well Black/Clear Flat Bottom Polystyrene NBS (Corning) rows 3-24. Rows 1-2 were filled with assay buffer. Plates were spun 10 seconds at 1000 rpm (164×g). 5 μL of compound intermediate dilution was added and mixed by pipetting up/down to rows 3-24. Rows 1-2 were filled with 3.1% DMSO assay buffer. Plates were spun 10 seconds at 1000 rpm (164×g). 5 μL 3-fold Nucleotide/DNA mix was added to all wells to start the reaction. Plates were spun 10 seconds at 1000 rpm (164×g) and incubated for 4 hour at room temperature (RT) in the dark. 5 μL 4U/mL PPase (Sigma) were added to all wells. Plates spun 10 seconds at 1000 rpm (164×g). 10 μL BioMol green Solution (Enzo Life Sciences) was added to all wells. Plates spun 10 seconds at 1000 rpm (164×g) and incubated 30 minutes at RT in the dark. Absorbance data was collected 620 nm on an EnVision Multilable Reader (Perkin Elmer) and the following measurement settings were used: excitation filter photometric was 620 nm; excitation from the top; measurement height was 1 mm; number of flashes was 30; number of flashes integrated was 1.
All plates are checked for abnormalities and outliers in the Blank Control (no protein, row 1) and the Neutral Control (no compound, row 2) are excluded using the 3*SD rule. Data was normalized to 0 and 100% by Blank and Neutral Control and each curve was fitted and judged using the 4 parameter logistic equation to determine the IC50 for cGAS inhibition.
Table 1 provides IC50 values (μM) for cGAS inhibition obtained for particular examples of the present invention as measured by the above-described assay.

Cc1ccc(-c2cc(C(=O)O)c3cn[nH]c3c2)c(Cl)c1 [Example 13, 6-(2-Chloro-4-methylphenyl)-1H-indazole-4-carboxylic acid] and Cc1cc(Cl)c(-c2cc(C(=O)O)c3cn[nH]c3c2)cc1F [Example 12, 6-(2-Chloro-5-fluoro-4-methylphenyl)-1H-indazole-4-carboxylic acid] are within 1.5-fold of each other in IC50: 4.46 µM for the first, 4.59 µM for the second.

Cc1ccc(-c2cc(C(=O)O)c3cn(Cc4nc(C)c(C)o4)nc3c2)c(Cl)c1 [Example 8, 6-(2-Chloro-4-methylphenyl)-2-((4,5-dimethyloxazol-2-yl)methyl)indazole-4-carboxylic acid] and Cc1ccc(-c2cc(C(=O)O)c3cn(Cc4nc(C5CC5)no4)nc3c2)c(Cl)c1 [Example 5, 6-(2-Chloro-4-methylphenyl)-2-((3-cyclopropyl-1,2,4-oxadiazol-5-yl)methyl)indazole-4-carboxylic acid] are within 1.5-fold of each other in IC50: 2.74 µM for the first, 2.21 µM for the second.

Cc1ccc(-c2cc(C(=O)O)c3cn(Cc4ccccn4)nc3c2)c(Cl)c1 [Example 7, 6-(2-Chloro-4-methylphenyl)-2-(pyridin-2-ylmethyl)indazole-4-carboxylic acid] and Cc1ccc(-c2cc(C(=O)O)c3cn(Cc4cccnc4)nc3c2)c(Cl)c1 [Example 6, 6-(2-Chloro-4-methylphenyl)-2-(pyridin-3-ylmethyl)indazole-4-carboxylic acid] are within 1.5-fold of each other in IC50: 2.4 µM for the first, 2.93 µM for the second.

First: Cc1ccc(-c2cc(C(=O)O)c3cn(CC(F)(F)F)nc3c2)c(Cl)c1 [Example 9, 6-(2-Chloro-4-methylphenyl)-2-(2,2,2-trifluoroethyl)-2H-indazole-4-carboxylic acid]
Second: Cc1ccc(-c2cc(C(=O)O)c3cn(Cc4cccc(Cl)c4)nc3c2)c(Cl)c1 [Example 3, 6-(2-Chloro-4-methylphenyl)-2-[(3-chlorophenyl)methyl]indazole-4-carboxylic acid]
The IC50 of the first is 2-fold lower: 1.56 µM for the first, 3.18 µM for the second. The first is the more potent here.

First: Cc1ccc(-c2cc(C(=O)O)c3cn(CCc4ccccc4)nc3c2)c(Cl)c1 [Example 11, 6-(2-Chloro-4-methylphenyl)-2-phenethyl-2H-indazole-4-carboxylic acid]
Second: Cc1ccc(-c2cc(C(=O)O)c3cn(Cc4ccccc4)nc3c2)c(Cl)c1 [Example 10, 2-Benzyl-6-(2-chloro-4-methylphenyl)-2H--indazole-4-carboxylic acid]
The IC50 of the first is 1.7-fold higher: 2.35 µM for the first, 1.37 µM for the second.

Cc1ccc(-c2cc(C(=O)O)c3cn(Cc4ccc(Cl)cc4)nc3c2)c(Cl)c1 [Example 4, 6-(2-Chloro-4-methylphenyl)-2-[(4-chlorophenyl)methyl]indazole-4-carboxylic acid] and Cc1ccc(-c2cc(C(=O)O)c3cn(Cc4ccccc4Cl)nc3c2)c(Cl)c1 [Example 2, 6-(2-Chloro-4-methylphenyl)-2-[(2-chlorophenyl)methyl]indazole-4-carboxylic acid] are within 1.5-fold of each other in IC50: 2.76 µM for the first, 2.2 µM for the second.

Cc1ccc(-c2cc(C(=O)O)c3cn(CCN4CCN(C)CC4)nc3c2)c(Cl)c1 [Example 1, 6-(2-Chloro-4-methylphenyl)-2-(2-(4-methylpiperazin-1-yl)ethyl)indazole-4-carboxylic acid] was tested, and the IC50 was 1.92 µM.
